Experiment [1] deals with T. b. brucei 427WT bloodstream trypomastigotes. Briefly: microbe, parasite or virus in culture. Particulars: for SI, selectivity index=EC50(HFF)/EC50(T. b. b. WT): HFF versus T. b. b. 427WT; for RF, resistance factor (+ 5 mM glycerol versus control): Table 2; for EC50: Trypanosoma brucei; for fold more active than compound 4: trypanocidal activity relative to parent compound 4. The class given is cell-based, Trypanosoma brucei brucei. The protocol: (§1) Organisms and culture media: Only bloodstream trypomastigotes of T. b. brucei were used throughout this study. […] Parasites were cultured in vented flasks at 37 °C and 5 % CO2 atmosphere and they were passaged every 3 days. Bloodstream forms of T. congolense savannah‐type strain IL3000 were cultured in basal MEM medium, supplemented by 10 % fresh goat serum, 14 μL of β‐mercaptoethanol, 800 μL of 200 mM glutamine solution, and 10 mL of penicillin/streptomycin solution per liter of medium (pH 7.3).48 T. congolense were cultured in six‐well plates at 34 °C and 5 % CO2.
(§2) In brief, the assays were performed in 96‐well plates with 2×10^5 cells per well for T. b. brucei or 5×10^5 cells per well for T. congolense, in their respective culture media. First, 200 μL of test compounds’ solutions (400 μM, in T. brucei or T. congolense medium as appropriate) was added to the first well of each 12‐well row, from which doubling dilutions were conducted over one row per test compound. […] Fluorescence was detected using a FLUOstar Optima (BMG Labtech, Durham, NC, USA) at wavelength of 540 nm (excitation), 590 nm (emission). EC50 values were calculated by nonlinear regression using an equation for a sigmoidal dose–response curve with variable slope using Prism 5.0 (GraphPad Software Inc., San Diego, CA, USA).

In the next experiment the test system is T. b. brucei B48. Briefly: microbe, parasite or virus in culture. The class given is cell-based, Trypanosoma brucei brucei. To be noted: for RF, resistance factor relative to WT (B48): B48 versus 427WT; for EC50: Trypanosoma brucei, read-out: EC50 T. b. b. B48. Here is the method: as §1, §2
Experiment [2] deals with T. b. brucei aqp2/aqp3‐KO. Briefly: microbe, parasite or virus in culture. The class given is cell-based, Trypanosoma brucei brucei. Particulars: for EC50: Trypanosoma brucei, read-out: EC50 T. b. b. aqp2/aq3‐KO; for RF, resistance factor relative to WT (aqp2/aqp3-KO): aqp2/aqp3-KO versus 427WT. Here is the method: as §1, §2
Another experiment relates to T. congolense IL3000 WT. Briefly: In vitro drug susceptibility assay (resazurin), T. congolense. The class given is cell-based. Particulars: Trypanosoma congolense, bloodstream forms, read-out: EC50 T. c. IL3000 WT. Here is the method:
as §1, §2
Background: Alamar Blue is a resazurin reagent that responds to reducing activity.

The target in another experiment is T. brucei GAPDH (Trypanosoma brucei brucei, UniProt P22512). Briefly: Inhibition of T. brucei GAPDH. The class given is biochemical. To be noted: fixed concentration of 10 μM; data not shown; read-out: decrease of GAPDH activity. The text has this: […]. […] Limitations of solubility prevented us from testing the series at higher concentrations. However, it must be noted that we cannot exclude the possibility of a low‐affinity inhibition of GAPDH contributing to the trypanocidal effect, as compounds may accumulate to relatively high concentrations within the parasite.

Experiment [3] has as its system T. b. brucei 427WT trypomastigotes. The experiment is described as follows: Growth curve / time-to-kill determination. The class given is cell-based, Trypanosoma brucei brucei. To be noted: 1× EC50; over 48 h. Here is the method: To determine whether 18–22 inhibited growth or cell division rather than causing cell death of T. b. brucei, cell growth curves were performed by treating 427WT trypomastigotes with concentrations corresponding to 0.5×, 1×, and 2× the EC50 value, using untreated cells as a control. Incubation with test compounds at half the EC50 (Figure 3 A) caused mostly some delayed growth phenotype, with rates increasing after 10 or 20 h. […] At double the concentration (Figure 3 C), all the hybrids cleared the culture between the 4 h and 8 h time points, with the cell populations rapidly declining between 2 and 4 h.
Untreated parasites, used as control, were grown in parallel. The cells were counted by using hemocytometer cell counter (cell count/mL×10^4) at 0, 2, 4, 8, 12, 24, 28, 32, 36, 48 h of incubation. Each experiment was performed as two independent replicates, and each sample was counted at least twice.

Experiment [4] deals with T. b. brucei 427WT bloodstream trypomastigotes. The experiment is described as follows: ATP assay on T. b. brucei (luciferin-luciferase). The class given is cell-based, Trypanosoma brucei brucei. To be noted: approximately 0.5×EC50; after 4–6 h. The protocol:
ATP assay on T. b. brucei and HFF cells: Changes in cellular ATP levels due to the exposure of trypanosomes to the test compounds (0.5×EC50) were monitored using the Molecular Probes ATP Determination Kit (A22066, Invitrogen Detection Technologies), based on the luciferin–luciferase bioluminescent enzymatic reaction. Bloodstream trypomastigote cultures of T. brucei s427WT were incubated with and without test compound, and, at each predetermined incubation time, 10^7 cells of each sample were transferred into a microfuge tube and centrifuged at 2000×g for 10 min at 4 °C. The pellet was washed twice with 1 mL of 50 mM Tris⋅HCl (pH 7.4) containing 0.1 mM DTT, and then resuspended in 200 μL of the same buffer. The cells were lysed by sonication on ice (twice for 10 s separated by 30 s), using a Soniprep 150 (MSE) at 8 μm amplitude. The samples were centrifuged at 10 000×g for 10 min at 4 °C and the supernatant was collected, instantly frozen in liquid nitrogen, and stored at −80 °C. Oligomycin (2.0 μg mL^−1) was used as positive control. ATP levels were quantified using the contents of the kit following the manufacturer's instructions; 90 μL of standard reaction solution was added to each well of a 96‐well plate and the background luminescence was recorded in a FLUOstar OPTIMA fluorimeter; 10 μL of each sample was then added to each well. The plate was incubated at 28 °C for 15 min and the luminescence was measured, including a standard curve with an ATP concentration ranging from 1 nM to 1 μM to allow the calculation of the ATP concentrations in each sample. The ATP content was measured at 0, 0.5, 1, 2, 4, 8 and 12 h of incubation with test sample.

The subject of experiment [5] is T. b. brucei 427WT trypomastigotes. The experiment is described as follows: Reactive oxygen species (ROS) assay (DCFH-DH). The class given is cell-based, Trypanosoma brucei brucei. Particulars: incubation up to 2 h, multiples of EC50. The protocol:
Reactive oxygen species (ROS) assay on T. b. brucei: The production of ROS when T. b. brucei 427WT trypomastigotes incubated with different concentration (2.5×EC50; 1.25×EC50; 0.3×EC50) of test compound was assessed using the indicator dye 2,7‐dichlorodihydrofluorescein diacetate (DCFH‐DH; Sigma–Aldrich). This assay was performed in a 96‐well black‐bottomed well plate; 200 μL of each test compound solution, at 5×EC50 in assay buffer pH 7.3, was added to the well in the first column of the plate and doubling dilutions were carried out across the row, after which 3×10^6 cell in 100 μL of assay buffer were added to each well, immediately followed by 2 μL of 1 mM DCFH‐DH, under minimal light conditions. The plates were incubated in a FLUOstar OPTIMA fluorimeter at 37 °C 5 % CO2 and the fluorescence was monitored at 485 nm for the excitation, 520 nm for the emission for 3 h, taking readings of each well every 2 min. Three wells were included in the plate as controls: 1) 3×10^6 cells per well in assay buffer without test compound; 2) 3×10^6 cells per well in assay buffer with 2 μL of 10 mM H2O2; 3) assay buffer without cells and test compound.

Setting [6] is: 72 h, bloodstream trypomastigotes, resazurin, 48 h + 24 h, n=4, read-out: EC50 T. b. b. 427WT.
Where [7] appears, read: Table 2, 5 mM glycerol in medium, average±SEM of three, read-out: EC50 s427WT + 5 mM glycerol.
Where [8] appears, read: Table 2, no glycerol, average±SEM of three, read-out: EC50 Control s427WT.

Read-outs that look alike come from different tables or passages of the source.

T. brucei GAPDH, sequence (P22512 whole entry): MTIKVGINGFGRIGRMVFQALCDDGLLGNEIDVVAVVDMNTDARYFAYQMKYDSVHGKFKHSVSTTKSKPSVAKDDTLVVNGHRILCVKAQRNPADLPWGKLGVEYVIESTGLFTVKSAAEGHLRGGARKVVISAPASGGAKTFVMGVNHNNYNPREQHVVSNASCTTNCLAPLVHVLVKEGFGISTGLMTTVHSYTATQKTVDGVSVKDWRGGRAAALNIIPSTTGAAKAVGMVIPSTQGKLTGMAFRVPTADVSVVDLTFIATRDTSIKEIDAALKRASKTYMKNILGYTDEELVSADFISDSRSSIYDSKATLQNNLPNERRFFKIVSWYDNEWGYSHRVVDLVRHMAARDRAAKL

As for `COc1cccc2c1C(=O)C=C(Oc1cccc(CCCCCCCCO)c1)C2=O` [Compound 20, 2‐(3‐(8‐Hydroxyoctyl)phenoxy)‐5‐methoxynaphthalene‐1,4‐dione], the “SI, selectivity index=EC50(HFF)/EC50(T. b. b. WT)” value in experiment [1] was over 40. Besides, the “RF, resistance factor (+ 5 mM glycerol versus control)” value in experiment [1] is listed as 1.74. Moreover, the EC50 is 5 ± 0.3 µM in experiment [1] (setting [6]); 16 ± 0.2 µM in experiment [1] (setting [7]); 9.2 ± 0.04 µM in experiment [1] (setting [8]); 5.3 ± 0.8 µM with T. b. brucei B48; 6.2 ± 0.58 µM in experiment [2]; 18.8 ± 0.2 µM with T. congolense IL3000 WT. In addition, the “fold more active than compound 4” value in experiment [1] is recorded as “up to 10 fold”. The “RF, resistance factor relative to WT (B48)” value with T. b. brucei B48 turned out to be 1.1. In experiment [2], the “RF, resistance factor relative to WT (aqp2/aqp3-KO)” value was 1.2. For the same compound, on T. brucei GAPDH, the inhibition at 10 µM is under 15%. Also, the “effect on cell growth” value in experiment [3] is recorded as “decreased the growth rate substantially, with a nearly trypanostatic effect over the first 12 h”. For the same compound, in experiment [4], the “ATP content, % of untreated [ATP]” value was “approximately 50%”. For the same compound, the “ROS production” value in experiment [5] is “dose‐dependently increased”.

`O=C1C(Oc2cccc(CCCCCCCCO)c2)=CC(=O)c2c(O)cccc21` [Compound 22, 5‐Hydroxy‐2‐(3‐(8‐hydroxyoctyl)phenoxy)naphthalene‐1,4‐dione]: in experiment [1], the “SI, selectivity index=EC50(HFF)/EC50(T. b. b. WT)” value is over 26.3. Besides, the “RF, resistance factor (+ 5 mM glycerol versus control)” value in experiment [1] is reported as 1.11. For the same compound, the EC50 in experiment [1] (setting [6]) was 7.6 ± 0.7 µM; in experiment [1] (setting [7]), 28.2 ± 0.2 µM; in experiment [1] (setting [8]), 25.4 ± 1 µM; in the experiment on T. b. brucei B48 it was 6.8 ± 0.1 µM; in experiment [2], 7.3 ± 0.5 µM; in the experiment with T. congolense IL3000 WT, 43.4 ± 0.2 µM. In experiment [1], the “fold more active than compound 4” value is “up to 10 fold”. Besides, the “RF, resistance factor relative to WT (B48)” value in the experiment with T. b. brucei B48 was determined as 0.91. In experiment [2], the “RF, resistance factor relative to WT (aqp2/aqp3-KO)” value was 0.96. On T. brucei GAPDH, the inhibition at 10 µM was under 15%. Besides, the “effect on cell growth” value in experiment [3] was “killed only a proportion of the cell population before stabilizing”. In experiment [4], the “ATP content, % of untreated [ATP]” value is “approximately 50%”. For the same compound, in experiment [5], the “ROS production” value is “dose‐dependently increased”.

For the origin of these results see paper PMC6686156, “Discovery of Sustainable Drugs for Neglected Tropical Diseases: Cashew Nut Shell Liquid (CNSL)‐Based Hybrids Target Mitochondrial Function and ATP Production in Trypanosoma brucei” (Chemmedchem, 2019).
